System: Plasmodium falciparum
Assay: GSK_TCMDC: Inhibition of Plasmodium falciparum 3D7 in whole erythrocytes, using parasite LDH activity as an index of growth.
Assay type: functional, organism-based
Conditions: Plasmodium falciparum, 3D7

Structure (SMILES) | XC50 [µM]
CC(=O)c1ccc(NC(=O)Nc2ccc(N(C)c3ccnc(Nc4cccc(CS(C)(=O)=O)c4)n3)cc2)cc1 | 0.122
CC(C)N1CCC(N(Cc2ccc(-c3ccc(C(F)(F)F)cc3)cc2)C(=O)Cn2c(SCc3cccc(F)c3F)cc(=O)c3c2CCC3)CC1 | 1.16
Nc1nc(N)c2c3c(ccc2n1)CCC3 | 0.928
CCN(CC)CCNc1cc(C)nc(NC(=N)Nc2ccc(Cl)cc2)n1 | 0.13
CCOC(=O)c1ccc(NC(=O)Nc2cccc(-c3cccc(-c4nc5cc(F)ccc5[nH]4)c3)c2)cc1 | 0.0947
COc1ccc(C(O)CNC(C)CCc2ccc(F)cc2)cc1C(F)(F)F (configuration not stated) | 0.747
COc1ccc(NC(=O)Nc2cccc(-c3ccc(-c4nc5cc(C(F)(F)F)ccc5[nH]4)cc3)c2)cc1 | 0.452
CCN1CCN(Cc2ccc3nc(-c4cc(C)n(Cc5cc(Cl)ccc5OCc5ccccc5)n4)[nH]c3c2)CC1 | 0.77
CCCOc1cccc(C(=O)N[C@@H](Cc2ccccc2)[C@H](O)CNCc2cccc(OC)c2)c1 | 0.741
COc1ccc(-c2onc(C(F)(F)F)c2-c2ccc(Br)cc2)c(O)c1 | 0.237
CCOC(=O)c1nc(-c2cc(Cl)nc(Cl)c2)[nH]c1NC(=S)NCc1ccc(NS(C)(=O)=O)cc1 | 0.892
O=C(Nc1cccc(CN2CCN(Cc3ccc(O)cc3)CC2)c1)c1ccc(-c2ccccc2)cc1 | 0.245
O=C(NC1CCC(N2CCC(Cc3ccc(F)cc3)CC2)CC1)c1cc2ccccc2[nH]1 (configuration not stated) | 0.868
COc1ccccc1C(C)NCC(=O)Nc1ccccc1Sc1ccccc1 (configuration not stated) | 1.1
CCCCCN1CCC(NS(=O)(=O)c2ccc(C(=O)Nc3cccc(C(F)(F)F)c3)cc2)C1 (configuration not stated) | 0.995
CN1CCC(O)(c2ccc(Br)cc2)C(C(O)c2ccc(Br)cc2)C1 (configuration not stated) | 0.731
NCc1ccc(CNCc2cccc(-c3cccc(-c4nc5ccccc5[nH]4)c3)c2)cc1 | 0.489
CN(C)CCCN1CCN(C(=O)c2cc3cc(-c4ccccc4)ccc3n2S(=O)(=O)c2ccccc2)CC1 | 0.119
O=S(=O)(Nc1cccc(CCN2CCC(N3CCCCC3)CC2)c1)c1ccccc1C(F)(F)F | 1.15
C=C(NC(=O)c1cc(C)cc(C)c1)C(=O)OC | 0.174
c1cc(CN2CCN(CCN3CCOCC3)CC2)cc(-c2csc(-c3nc4ccccc4[nH]3)c2)c1 | 0.452
Fc1ccc2[nH]c(-c3cccc(-c4ccc(CNCc5cnn(-c6ccccc6)n5)cc4)c3)nc2c1 | 0.917
Oc1cc2ccccc2cc1CNC1CCCCC1 | 0.586
CCC(O)c1ccc(Br)cc1NC(=O)c1cccc(Cl)c1 (configuration not stated) | 1.02
CC(O)C1CCCCN1C(=O)c1ccc(-c2cccc(-c3nc4cc(F)ccc4[nH]3)c2)cc1 (configuration not stated) | 0.54

Structure (SMILES) | XC50 [µM]
COc1c(C2CCN(CCCCNC(=O)c3ccc(-c4ccc(Cl)cc4)c(OCC(N)=O)c3)CC2)ccc2c1CCCC2 | 1.01
Cc1cccc2[nH]cc(C3CCN(CC4CCC(NC(=O)/C=C/c5ccc(Cl)c(Cl)c5)CC4)CC3)c12 (configuration not stated) | 0.163
Oc1ccc(Nc2nc(NCC3CCCO3)c3ccccc3n2)cc1 (configuration not stated) | 0.806
Cc1nc2ccccc2c(O)c1-c1ccc(Cl)cc1 | 0.999
CCn1cnc2c(N3CCCCS3(=O)=O)cc(C(=O)N[C@@H](Cc3ccccc3)[C@H](O)CNC3CCOCC3)cc21 | 0.712
CCCc1ccccc1OCC(O)CN(C1CCCC1)C1CCCC1 (configuration not stated) | 0.47
Cc1ccccc1NC(=O)C1CSCN1C(=O)OCc1ccccc1 (configuration not stated) | 0.983
c1ccc2c(Nc3ccc(Oc4ccc(Nc5c6ccccc6nc6ccccc56)cc4)cc3)c3ccccc3nc2c1 | 0.518
CCCC1N=C(N)N=C(N)N1c1ccc(CC)cc1 (configuration not stated) | 0.0669
CCc1c(CCNCCCCCCNCCc2ccc(OC)c(OC)c2C)ccc(OC)c1OC | 1.57
CCC(C)CNC(=O)CN1CN(c2ccccc2)C2(CCN(C(=O)c3ccc(Br)cc3)CC2)C1=O (configuration not stated) | 1.07
CCn1ccc2c(N3CCCC3=O)cc(C(=O)N[C@@H](Cc3ccccc3)[C@H](O)CNC3CCCCC3)cc21 | 0.119
CNCCNCc1ccc(-c2ccc(-c3nc4cc(F)ccc4[nH]3)s2)cc1 | 0.772
CN1CCN(CCCN(Cc2ccc(-c3cccc(CNC4CCCC4)c3)cc2)C(=O)Nc2ccccc2)CC1 | 1.12
Nc1nc(N)c2c3c(cnc2n1)CCCC3 | 0.77
CC1=C(C(=O)OC(C)C)C(c2ccccc2Cl)C2=C(CC(c3ccccc3)CC2=O)N1 (configuration not stated) | 0.85
Cc1noc(C)c1-c1cccc(CNCc2ccc(-c3ccc(-c4nc5ccccc5[nH]4)s3)cc2)c1 | 0.556
COc1cc(F)c2nccc([C@@H](O)CN3CCC(NCc4cc5c(cc4F)OCCO5)CC3)c2c1 | 0.679
Cc1cccc2nc(-c3cccc(-c4cccc(NC(=O)CN5CCN(C)CC5)c4)c3)[nH]c12 | 0.533
N#Cc1ccc2c(c1)CCN(CCC1CCC(NC(=O)/C=C/c3c[nH]c4c(Br)cccc34)CC1)CC2 (configuration not stated) | 0.379
O=C(Nc1ccccc1-c1ccccc1)C1CCCN1C(=O)Nc1ccc(Cl)cc1 (configuration not stated) | 0.793
O=C(Nc1ccc([N+](=O)[O-])cc1)Nc1cc(OCC(F)(F)F)cc(OCC(F)(F)F)c1 | 0.469
CN=C(N)c1ccc(NC(=O)C=Cc2ccc(C(=O)Nc3ccc(C(N)=NC)cc3)cc2)cc1 | 0.0314
Cc1cc(N(C)C2CCN(C)CC2)nc(Nc2ccc(Br)cc2)n1 | 0.48
FC(F)(F)c1ccc2[nH]c(-c3cccc(-c4cccc(CNCCc5ccncc5)c4)c3)nc2c1 | 0.141

Structure (SMILES) | XC50 [µM]
CCCCCCN(CCCCCC)CCCCNc1c2ccc(Cl)cc2nc2ccc(OC)cc12 | 0.535
COc1ccc2nccc(NCC3(O)CCN(CCc4ccc5c(c4)OCCO5)CC3)c2n1 | 0.597
CCCOc1ccc(CNCCCCCCNCc2ccc(OCCC)c3ccccc23)c2ccccc12 | 0.41
Cc1[nH]c(C)c(-c2ccc(-c3ccc(OC(F)(F)F)cc3)cc2)c(=O)c1Br | 0.0386
Cc1cnc(C(=O)Nc2cccc(-c3ccc(-c4nc5cc(C(F)(F)F)ccc5[nH]4)s3)c2)cn1 | 0.704
CCc1c(CCNCCCCCCNCCc2ccc(OC)cc2)ccc(OC)c1OC | 0.871
CCN(CC)CCOc1c(Cl)cc(Cl)cc1CNCCCNc1cc(=O)c2ccccc2[nH]1 | 0.871
CC(C)COc1ccc(Cl)cc1Cc1ccc(-c2nc3cc(CCN4CCCC4)ccc3[nH]2)o1 | 0.73
Fc1ccc2[nH]c(-c3ccc(-c4ccc(CN5CCCCC5)cc4)s3)nc2c1 | 0.602
Cc1cc(NC(=O)Nc2ccc3ccn(C)c3c2)c2ccccc2n1 | 0.214
Cc1cc(C)c(C(=O)Nc2ccc3nc(C)cc(N)c3c2)c(C)c1 | 1.09
Oc1c(CN2CCCC(C(F)(F)F)C2)cc(Cl)c2ccccc12 (configuration not stated) | 1.57
CN(C)/C(=N/C(=N)Nc1ccc(Cl)cc1)NCCCCCCN/C(=N\C(=N)Nc1ccc(Cl)cc1)N(C)C | 0.533
COc1ccc2nc(C)cc(NCc3ccc4ccccc4c3)c2c1 | 0.468
CCc1cn(CCCOC)c2ccc(C(=O)N[C@@H](Cc3ccccc3)[C@H](O)CNCc3cccc(C(F)(F)F)c3)cc12 | 0.186
COc1ccc2nccc([C@@H](O)CN3CCC(NC(=O)c4ccc(OC)c(N)c4)CC3)c2c1 | 0.715
COc1cc(CNCCCNc2cc(=O)c3ccccc3[nH]2)c2c(c1)C(C)CN2C(=O)OC(C)(C)C (configuration not stated) | 0.734
CC1(C)[C@H]2CC[C@@H](CNc3nc(NCC(=O)Nc4ccc5ccccc5c4)nc(N4CCC(N5CCCC5)CC4)n3)[C@@H]1C2 | 1.19
CC(=O)c1sc(NC(=O)Nc2ccc(C)cc2C)nc1C | 0.906
CC1(C)NC(N)=NC(=N)N1OCCSCc1cc(Cl)sc1Cl | 0.0032
Nc1nc(N)c2c(ccc3c2ccn3Cc2cc3c(cc2Cl)OCO3)n1 | 0.0032
C=C[C@]1(C)C[C@@H](OC(=O)CSC2CN3CCC2C3)[C@@]2(C)C3C(=O)CC[C@@]3(CC[C@H]2C)[C@@H](C)[C@@H]1O (some centres not stated) | 0.689
Cn1cc(-c2ccccc2C(=O)O)c(=O)c2cc(Cl)ccc21 | 0.917
CCN(CCCN1CCCCC1)c1cc(C)nc(Nc2ccc(C)c(Cl)c2)n1 | 0.207
Cc1cc(-c2ccc(CN3Cc4ccccc4C3)cc2)ccc1S(=O)(=O)NCCN1CCCC1 | 0.966

Structure (SMILES) | XC50 [µM]
CCOc1ccc2nc3cc([N+](=O)[O-])ccc3c(N)c2c1 | 0.139
CC(C)Sc1nc2c(c(=O)n1CCc1ccccc1)C1(CCCC1)Cc1ccccc1-2 | 0.347
CC1CN(Cc2cccc(F)c2)CCN1c1ccc(NC(=O)c2ccc(F)cc2)cc1 (configuration not stated) | 0.58
c1cncc(CNc2ncc(-c3ccsc3)c(-c3nccs3)n2)c1 | 1.38
COc1ccccc1Oc1c(N(C)S(=O)(=O)c2ccc(C(C)C)cc2)nc(C(F)(F)F)nc1N(C)S(=O)(=O)c1ccc(C(C)C)cc1 | 0.846
COc1ccc(NC(=O)[C@H](Cc2ccccc2)Nc2cc(C)nc(NCCOc3ccccc3)n2)cc1 | 1.07
CC(C)CNCc1cccc(-c2cccc(CN(C(=O)Nc3ccccc3)C3CCN(Cc4ccccc4)CC3)c2)c1 | 0.369
CCN(c1ccc(O)c(CN2CCCCC2)c1)c1ccc([N+](=O)[O-])cn1 | 0.886
Nc1ncc(-c2ccc(F)cc2)c2ccc(-c3cccc(F)c3)cc12 | 0.227
CC(C)(C)OC(=O)NCc1ccc(Nc2nnc(-c3cccc(C(=O)NCCC(c4ccccc4)c4ccccc4)c3)o2)cc1 | 0.581
C=CCc1cc(SC)ccc1Oc1ccc(N)cc1 | 0.743
Cc1cc(N[C@@H](CC(C)C)C(=O)NCCOc2ccccc2)nc(NCCc2ccc(F)cc2)n1 | 1.29
CN1CCC(NCc2ccc(-c3cccc(-c4nc5ccccc5[nH]4)c3)cc2)CC1 | 0.126
CC(Oc1ccc(C(=O)c2ccc(F)cc2)cc1)C(=O)N1CCc2ccccc21 (configuration not stated) | 0.413
COc1ccc(NC(=O)Nc2ccc(-c3cccc(-c4nc5ccccc5[nH]4)c3)cc2)cc1 | 0.764
C#CCN(Cc1cc2c(=O)[nH]c(N)nc2cc1C)c1ccc(C(=O)N[C@@H](CCC(=O)O)C(=O)O)cc1 | 0.625
CC(C)COc1ccc(Cl)cc1Cc1ccc(-c2nc3c(F)cccc3[nH]2)o1 | 0.806
CCNc1cc(C(=O)N[C@@H](Cc2ccccc2)[C@H](O)CNC23CCC(CC2)C3)cc(N2CCCCS2(=O)=O)c1 | 0.0341
Cc1ccc(-c2nc(NC(=O)Nc3ccc(C(F)(F)F)cc3)sc2C)cc1Cl | 0.659
COc1c(C2CCN(CCCCNC(=O)c3cc(-c4ccc(Cl)cc4)[nH]c3C)CC2)ccc2c1CCCC2 | 0.97
CCc1cccc(NC(=O)/C=C/c2ccc3c(c2)CN(C)CC3)c1 | 0.767
COc1cc2nc(SCC(C)C)n(CCCn3ccnc3)c(=N)c2cc1OC | 0.61
